Drawing on US20240246957A1, “Diazepane Derivatives, Processes for their Preparation, and Uses thereof for the Amelioration, Prevention and/or Treatment of Mental and Neurological Diseases” (2N Pharma ApS, priority 2021, published 2024), this text covers survival and IC50 for three compounds.

pIC50: −log10 of the molar value.

One experiment concerns SOD1 G93A mice. In words: Efficacy study (survival) in SOD1 G93A mouse model of ALS. The note with it: compared to vehicle, Edaravone and Riluzole, survival = neurological score below 4, FIG. 2. The class given is in vivo. Here is the method: All experiments were approved by the Danish Animal Experiment Inspectorate (2017-15-0202-00088) and followed the National and European guidelines for conducting animal experiments. Animal experiments was conducted according to the ARRIVE guidelines. Mice were housed in IVC cages in a high barrier facility at Aalborg University, Denmark with a room temperature of 21° C. The mice were kept at a 12-hour light/dark cycle and had ad libitum access to food and water.
B6.Cg-Tg(SOD1*G93A)1Gur/J mice (Stock #004435) (SOD1) were purchased from Jackson Laboratory (Bar Harbor, USA). The congenic SOD1 mice were maintained in our animal facility by crossing hemizygote SOD1 male mice with female C57BI/6J mice. Litters were genotyped according to established protocol using DNA extracted from ear tissue punches. Male SOD1 mice were used to maintain the colony, and SOD1 female and their wildtype littermates were used for experiments. All animals were assessed for human endpoints daily, weight twice a week, and neurological score once a week. SOD1 females (n=4) were evaluated at baseline and day 128 for cylinder, dark-light and y-maze tests, and at baseline and day 142 by neurological score, grip strength, hangwire test and rotarod. […] In addition, survival was evaluated as described under neurological score, onset of disease and survival analysis.
Mice were evaluated by the same experimenter weekly. […]

The next experiment relates to HEK293 cells. Kind of experiment: Fatty acid uptake assay using HEK293 cells. Particulars: Homo sapiens, CPT1 inhibitor, racemic mixture, FIG. 1. The class given is cell-based. Here is the method: HEK293 cells were thawed and centrifuged at 400 g in 1 min, whereafter the supernatant was discarded. The cells were resuspended in DMEM+GlutaMax medium (cat #10566016, Invitrogen) containing 10% fetal calf serum (cat #10270-106, Invitrogen) and 1% penicillin/streptomycin (cat #15140-122, Life Technologies). HEK293 cells were seeded into a T25 flask and incubated at 37 degrees Celsius until 80% confluency. When the HEK293 cells reached confluency, cells were counted and seeded in a 96-well plate and with a volume of 10.000 cells/well in medium (as described above) and incubated overnight. Three wells were without cells serving as controls.
The cells were divided into two groups: 1) Example 1, and 2) Untreated. The fatty acid uptake assay (cat #408-100, BioVision) was carried out according to the protocol from BioVision. The only exception to the protocol was that the measurements in the PerkinElmer Multimode Plate Reader Enspire instrument was running overnight.
Statistics was performed in GraphPad Prism version 8.0. Repeated measure two-way ANOVA were conducted as the groups were tested multiple times followed by a multiple comparison Bonferroni post hoc test.

For the compound `CC(=O)N1CCC(c2nc(-c3ccncc3)cs2)N(C(=O)COc2ccccc2)CC1` (single isomer, unassigned) [Example 1-E2], in the experiment on SOD1 G93A mice, the survival result is reported as “improved survival”.

With `CC(=O)N1CCC(c2nc(-c3ccncc3)cs2)N(C(=O)COc2ccccc2)CC1` (single isomer, unassigned) [Example 1-E1], the survival entry in the experiment on SOD1 G93A mice was “improved survival”.

Regarding `CC(=O)N1CCC(c2nc(-c3ccncc3)cs2)N(C(=O)COc2ccccc2)CC1` (single isomer, unassigned) [Example 1, 1-(4-acetyl-7-(4-(pyridin-4-yl)thiazol-2-yl)-1,4-diazepan-1-yl)-2-phenoxyethan-1-one], the pIC50 in the experiment with HEK293 cells is 6.52.
